The subject of data set [1] is hBS cells. Kind of data set: Cytotoxicity test, viability by ATP content (CellTiterGlo), hBS cells. Type of data set: cell-based, human. To be noted: hBS cells set to 1. For orientation: ATP-based viability assays read luminescence as a measure of living cells.
Data set [2] has as its system human foreskin fibroblasts (hFFs). Kind of data set: Cytotoxicity test, viability by ATP content, hFFs. The data set is classed as cell-based. Conditions: relative to hBS cells = 1.
Data set [3] concerns hBS MPs. In words: Cytotoxicity test, viability by ATP content, hBS MPs (progenitor cells). The data set is classed as cell-based, human. To be noted: relative to hBS cells = 1.
In data set [4] the test system is hBS MPs. Kind of data set: Cytotoxicity test, viability by Resazurin reduction, hBS MPs (progenitor cells). Type of data set: cell-based, human. Conditions: relative to hBS cells = 1. A general note: Alamar Blue is a resazurin reagent that responds to reducing activity.
Data set [5] deals with human foreskin fibroblasts (hFFs). In words: Cytotoxicity test, viability by Resazurin reduction, hFFs. Conditions: relative to hBS cells = 1. Type of data set: cell-based.
Data set [6] relates to hBS cells. In words: Cytotoxicity test, viability by Resazurin reduction, hBS cells. Type of data set: cell-based, human. To be noted: hBS cells set to 1.
In data set [7] the test system is hBS cells, hBS MPs and hFFs. Kind of data set: Cytotoxicity test, comparison over all cell types (hBS cells, progenitor cells, hFF). Conditions: FIG. 3.

The values below come from patent US8153359B2, “Toxicity assay based on human blastocyst-derived stem cells and progenitor cells” (Cellartis AB, priority 2006, dated 2012).

Turning to `CC1=C(/C=C/C(C)=C/C=C/C(C)=C/C(=O)O)C(C)(C)CCC1` [ATRA, all-trans retinoic acid], the “Ratio between the IC50 values measured using the ATP assay, hBS cells” value in data set [1] was found to be 1. For the same compound, the “Ratio between the IC50 values measured using the ATP assay, hFF” value in data set [2] is reported as greater than 4. The “Ratio between the IC50 values measured using the ATP assay, Progenitors” value in data set [3] is 0.0001. Also, in data set [4], the “Ratio between the IC50 values measured using the Rezasurin assay, Progenitors” value worked out at 0.0005. Further, in data set [5], the “Ratio between the IC50 values measured using the Rezasurin assay, hFF” value was greater than 6. The “Ratio between the IC50 values measured using the Rezasurin assay, hBS cells” value in data set [6] is recorded as 1.

Regarding `CC1=C(/C=C/C(C)=C/C=C/C(C)=C\C(=O)O)C(C)(C)CCC1` [13CRA, 13-cis retinoic acid], in data set [1], the “Ratio between the IC50 values measured using the ATP assay, hBS cells” value came out at 1. In addition, the “Ratio between the IC50 values measured using the ATP assay, hFF” value in data set [2] is greater than 6. The “Ratio between the IC50 values measured using the ATP assay, Progenitors” value in data set [3] is 0.000025. Moreover, the “Ratio between the IC50 values measured using the Rezasurin assay, Progenitors” value in data set [4] worked out at 0.000001. The “Ratio between the IC50 values measured using the Rezasurin assay, hFF” value in data set [5] was greater than 7. Also, the “Ratio between the IC50 values measured using the Rezasurin assay, hBS cells” value in data set [6] is listed as 1.

`O=C1NS(=O)(=O)c2ccccc21.[Na]` [Saccharin, Sodium Saccharin]: the toxic reaction entry in data set [7] is listed as “no toxic reaction”.

As to `O=c1[nH]cc(F)c(=O)[nH]1` [5-FU, 5-Fluorouracil], the “Ratio between the IC50 values measured using the ATP assay, hBS cells” value in data set [1] is 1. Further, the “Ratio between the IC50 values measured using the ATP assay, hFF” value in data set [2] is 7. For the same compound, the “Ratio between the IC50 values measured using the ATP assay, Progenitors” value in data set [3] turned out to be 2. In data set [4], the “Ratio between the IC50 values measured using the Rezasurin assay, Progenitors” value is listed as 1. For the same compound, in data set [5], the “Ratio between the IC50 values measured using the Rezasurin assay, hFF” value is reported as 2.5. Further, in data set [6], the “Ratio between the IC50 values measured using the Rezasurin assay, hBS cells” value was determined as 1.
